# Experimental data: ChEMBL document CHEMBL5614369, “Design, synthesis and biological evaluation of Nrf2 modulators for the treatment of glioblastoma multiforme” (Bioorg Med Chem, 2024)
# Calls of active or inactive are those of the source. No cut-off for these calls is given here.
# Tests used:
# U-87 MG [1] = assay: Antitumor activity against human U87 cells assessed as residual cell viability at 100 uM incubated for 48 hrs by CCK-8 assay relative to control; type: functional, U-87MG ATCC
# U-87 MG [2] = assay: Anti-tumor activity against human U87 cells assessed as reduction in cell proliferation by measuring reduction in green fluorescence intensity at 50 to 100 uM incubated for 48 hrs by Calcein AM dye based fluorescence microscopy; type: functional; conditions: U-87MG ATCC, dose 50-100 µM
# U-87 MG [3] = assay: Antitumor activity against human U87 cells assessed as reduction in cell viability incubated for 48 hrs by CCK-8 assay; type: functional, cell-based, U-87MG ATCC
# U-87 MG [4] = assay: Cytotoxicity against human U87 cells assessed as reduction in cell count at 12.5 to 200 uM incubated for 48 hrs by crystal violet staining based microscopic analysis; type: functional; conditions: U-87MG ATCC, dose 12.5-200 µM
IC50 (U-87 MG [3]) [µM],SMILES,Activity (U-87 MG [1]) [%],Activity (U-87 MG [2]),Activity (U-87 MG [3]; U-87MG ATCC),Activity (U-87 MG [4])
,Cn1nnc2c(C(N)=O)ncn2c1=O [TEMOZOLOMIDE],47,,,
89,Oc1cc(O)cc(/C=C/c2ccccc2)c1 [PINOSYLVIN],90,Active,Dose-Dependent Effect,Active
